The source made the active and inactive calls. The rule behind the calls is not given here.
What follows are molecules tested against BioA (adenosylmethionine-8-amino-7-oxononanoate aminotransferase), Mycobacterium tuberculosis (assay: inhibition of purified M. tuberculosis BioA – biochemical, plate reader, dry powder samples, dose response (AID 720592)). Settings: purified Mtb BioA enzyme, plate reader activity.
With `COc1ccc(C(=O)N2CCN(c3ccc(C(C)=O)cc3)CC2)cc1` the AC50 was > 20 µM (inactive).
With `O=C(c1ccc2c(c1)OCO2)N1CCN(c2ccc(Cl)cc2)CC1` the AC50 was > 20 µM (inactive).
In the case of `O=C(Nc1cccnc1)c1cnn2c(C(F)(F)F)cc(-c3ccccc3)nc12`, the AC50 is reported as > 20 µM (inactive).
In the case of `O=C(Nc1ccc(F)cc1)N1CCN(c2ccccc2)CC1`, the AC50 is reported as > 20 µM (inactive).
In the case of `CC(=O)c1ccc(N2CCN(C(=O)c3cccc(Cl)c3)CC2)cc1`, the AC50 is reported as > 20 µM (inactive).
With `COc1ccc(NC(=O)N2CCN(c3ccccc3)CC2)cc1` the AC50 was > 20 µM (inactive).
For `Cc1cc(C)n2nc(C(=O)Nc3cccnc3)nc2n1`, the AC50 was > 20 µM (inactive).
With `Cc1ccccc1/C=C(\CCC(=O)O)c1nc2ccccc2s1` the AC50 was > 20 µM (inactive).

Same assay, conditions: purified Mtb BioA enzyme, plate reader activity; at 10 µM (top of the series)
With `O=C(Nc1ccc2snnc2c1)N1CCCCC1` the inhibition was “inactive”.
With `CC(C)(C)c1ccc(C(=O)N2CCN(c3ccc4c(c3)OCO4)CC2)cc1` the inhibition was “inactive”.
For `O=C(O)CC/C(=C\c1ccccc1[N+](=O)[O-])c1nc2ccccc2s1`, the inhibition was “inactive”.
For `CC(=O)c1ccc(N2CCN(C(=O)c3cccc(F)c3)CC2)cc1`, the inhibition was “inactive”.
`O=C(Nc1ccc(Cl)cc1)c1cc2nc(C3CC3)cc(C(F)(F)F)n2n1` was tested, and the inhibition was “inactive”.
For `O=C(O)CC/C(=C\c1ccc([N+](=O)[O-])cc1)c1nc2ccccc2s1`, the inhibition was “inactive”.
`COc1ccc(N2CCN(C(=O)c3ccc4c(c3)OCO4)CC2)cc1` was tested, and the inhibition was “inactive”.
For `Cc1ccc(/C=C(\CCC(=O)O)c2nc3ccccc3s2)cc1`, the inhibition was “inactive”.
For `CC(=O)c1ccc(N2CCN(C(=O)c3ccc4ncsc4c3)CC2)cc1`, the inhibition was “inactive”.
With `O=C(Nc1cccc(Cl)c1)N1CCN(c2ccccc2)CC1` the inhibition was “inactive”.
With `CCOC(=O)N1CCN(C(=O)Nc2ccc3snnc3c2)CC1` the inhibition was “inactive”.
`Cc1nc2cc(NC(=O)N3CCN(c4ccccc4)CC3)ccc2o1` was tested, and the inhibition was “inactive”.
In the case of `Cc1ccc(/C=C(\CCC(=O)O)c2nc3ccccc3s2)cc1[N+](=O)[O-]`, the inhibition is reported as “inactive”.
`Cc1cccc(/C=C(\CCC(=O)O)c2nc3ccccc3s2)c1` was tested, and the inhibition was “inactive”.
In the case of `COc1ccc(-c2cc(C(F)(F)F)n3nc(C(=O)Nc4cccnc4)cc3n2)cc1`, the inhibition is reported as “inactive”.
For `COc1cc(/C=C/C(=O)Nc2cccnc2)cc(OC)c1OC`, the inhibition was “inactive”.
`O=C(Nc1cccc(F)c1)N1CCN(c2ccccc2)CC1` was tested, and the inhibition was “inactive”.
`Cc1ccc(NC(=O)N2CCN(c3ccccc3)CC2)cc1` was tested, and the inhibition was “inactive”.
`O=C(Nc1ccc2snnc2c1)N1CCOCC1` was tested, and the inhibition was “inactive”.
With `O=C(Nc1cccnc1)N1CCN(c2ccccc2)CC1` the inhibition was “inactive”.
With `CC(=O)c1ccc(N2CCN(Cc3ccc4c(c3)OCO4)CC2)cc1` the inhibition was “inactive”.
With `O=C(Nc1cccnc1)c1cnn2c(C(F)F)cc(C3CC3)nc12` the inhibition was “inactive”.
For `CC(=O)c1ccc(N2CCN(C(=O)c3ccc(C)cc3)CC2)cc1`, the inhibition was “inactive”.
For `COC(=O)c1c(C(=O)OC)c(-c2cccc(F)c2)n2c1CS(=O)C2` (stereo not given), the inhibition was “inactive”.
In the case of `O=C(COc1ccc2ccc(=O)oc2c1)N1CCN(c2ccc(F)cc2)CC1`, the inhibition is reported as “inactive”.
With `COc1cccc(NC(=O)CCC2CCN(C(=O)c3ccc(C(C)=O)s3)CC2)c1` the inhibition was “inactive”.
In the case of `Cc1cc(C)n2nc(C(=O)Nc3cccnc3)cc2n1`, the inhibition is reported as “inactive”.
With `O=C(Nc1ccncc1)c1cc2nc(C3CC3)cc(C(F)F)n2n1` the inhibition was “inactive”.
With `Cc1ccc(/C=C(\CCCC(=O)O)c2nc3ccccc3s2)cc1[N+](=O)[O-]` the inhibition was “inactive”.
`CC(=O)c1ccc(N2CCN(C(=O)c3ccc(Cl)cc3)CC2)cc1` was tested, and the inhibition was “inactive”.
`O=C(c1ccc2c(c1)OCO2)N1CCN(c2ccccc2)CC1` was tested, and the inhibition was “inactive”.
`CC(=O)c1ccc(N2CCN(C(=O)c3ccc4c(c3)OCO4)CC2)cc1` was tested, and the inhibition was “inactive”.
`CC(=O)c1ccc(N2CCN(C(=O)c3cccnc3)CC2)cc1` was tested, and the inhibition was “inactive”.
For `COc1cccc(NC(=O)N2CCN(c3ccccc3)CC2)c1`, the inhibition was “inactive”.
For `Cc1nc2ccc(NC(=O)N3CCN(c4ccccc4)CC3)cc2s1`, the inhibition was “inactive”.
With `Cc1ccc(/C=C(\CC(=O)O)c2nc3ccccc3s2)cc1[N+](=O)[O-]` the inhibition was “inactive”.
With `O=C(Nc1ccc2snnc2c1)N1CCN(c2ccccc2)CC1` the inhibition was “inactive”.
With `COc1cccc(C(=O)N2CCN(c3ccc(C(C)=O)cc3)CC2)c1` the inhibition was “inactive”.
With `O=C(Nc1ccc2[nH]ccc2c1)N1CCN(c2ccccc2)CC1` the inhibition was “inactive”.
`O=C(Nc1ccc(Cl)c(-c2nc3ccccc3[nH]2)c1)c1cccnc1` was tested, and the inhibition was “inactive”.
In the case of `O=C(c1ccc2c(c1)OCO2)N1CCN(Cc2ccccc2)CC1`, the inhibition is reported as “inactive”.
With `O=C(c1ccc2c(c1)OCO2)N1CCN(c2ccc(F)cc2)CC1` the inhibition was “inactive”.
For `CC(=O)c1ccc(N2CCN(C(=O)c3ccccc3)CC2)cc1`, the inhibition was “inactive”.
`O=C(Nc1ccccc1)N1CCN(c2ccccc2)CC1` was tested, and the inhibition was “inactive”.
In the case of `CCc1ccc(C(=O)N2CCN(Cc3ccc4c(c3)OCO4)CC2)cc1`, the inhibition is reported as “inactive”.
`Cc1ccc(-c2cc(C(F)(F)F)n3nc(C(=O)Nc4cccnc4)cc3n2)cc1` was tested, and the inhibition was “inactive”.
With `CC(=O)c1ccc(N2CCN(C(=O)c3ccc(F)cc3)CC2)cc1` the inhibition was “inactive”.
`O=C(Nc1cccnc1)c1cc2nc(-c3cccs3)cc(C(F)(F)F)n2n1` was tested, and the inhibition was “inactive”.
In the case of `CC(=O)c1ccc(N2CCN(C(=O)c3ccc4c(c3)OCCO4)CC2)cc1`, the inhibition is reported as “inactive”.
`CCc1ccc(N2CCN(C(=O)c3ccc4c(c3)OCO4)CC2)cc1` was tested, and the inhibition was “inactive”.
For `CCN(CC)c1ccc2cc(C(=O)c3cccs3)c(=O)oc2c1`, the inhibition was “inactive”.
In the case of `CC(=O)c1ccc(N2CCN(C(=O)c3ccc(Br)cc3)CC2)c(F)c1`, the inhibition is reported as “inactive”.

Source: PubChem BioAssay AID720592 (Broad Institute, 2013)
